ChEMBL document CHEMBL1123108 (J Med Chem, 1985)

Legend:
[1] = biological target: T1, Aromatase (Homo sapiens, UniProt P11511); experiment: Inhibition of Cytochrome P450 19A1 at 20 ug/mL; None; details: at 20 µg/mL
T1 sequence (P11511 whole entry): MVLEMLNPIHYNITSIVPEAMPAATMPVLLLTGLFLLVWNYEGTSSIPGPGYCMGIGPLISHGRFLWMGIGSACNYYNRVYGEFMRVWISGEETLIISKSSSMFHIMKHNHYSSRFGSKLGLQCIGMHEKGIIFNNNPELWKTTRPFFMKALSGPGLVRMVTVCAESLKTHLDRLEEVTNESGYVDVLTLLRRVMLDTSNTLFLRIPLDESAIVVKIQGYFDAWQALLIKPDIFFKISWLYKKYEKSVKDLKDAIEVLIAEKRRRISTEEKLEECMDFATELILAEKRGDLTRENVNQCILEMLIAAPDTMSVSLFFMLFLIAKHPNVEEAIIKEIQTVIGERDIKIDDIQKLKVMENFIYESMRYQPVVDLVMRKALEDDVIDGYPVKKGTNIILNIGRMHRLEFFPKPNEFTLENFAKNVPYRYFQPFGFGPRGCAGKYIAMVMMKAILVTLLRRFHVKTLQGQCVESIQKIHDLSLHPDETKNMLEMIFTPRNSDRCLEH

[2] = biological target: T2, Cholesterol side-chain cleavage enzyme, mitochondrial (Bos taurus, UniProt P00189); experiment: Inhibition of bovine adrenal desmolase at 50 ug/mL; None; details: cattle; at 50 µg/mL
T2 sequence (P00189 whole entry): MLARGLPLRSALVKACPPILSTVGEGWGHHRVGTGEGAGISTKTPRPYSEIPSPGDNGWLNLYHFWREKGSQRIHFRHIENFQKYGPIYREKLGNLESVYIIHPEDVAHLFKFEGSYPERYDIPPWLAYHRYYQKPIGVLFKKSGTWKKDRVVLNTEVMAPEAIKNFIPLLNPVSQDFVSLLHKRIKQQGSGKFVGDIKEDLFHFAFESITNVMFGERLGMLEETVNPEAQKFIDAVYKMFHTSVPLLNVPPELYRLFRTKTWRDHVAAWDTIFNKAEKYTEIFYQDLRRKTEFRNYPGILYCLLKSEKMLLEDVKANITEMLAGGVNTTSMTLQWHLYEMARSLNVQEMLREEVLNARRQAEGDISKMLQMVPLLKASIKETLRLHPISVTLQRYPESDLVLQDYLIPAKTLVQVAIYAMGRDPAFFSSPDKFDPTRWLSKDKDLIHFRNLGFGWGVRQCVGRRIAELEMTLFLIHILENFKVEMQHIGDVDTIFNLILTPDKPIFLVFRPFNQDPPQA

[3] = biological target: T1, Aromatase; experiment: Inhibition of Cytochrome P450 19A1 at 20 ug/mL
[4] = biological target: T3, Cytochrome P450 11A1 (desmolase, cholesterol side-chain cleavage enzyme) (Bos taurus, UniProt P00189); experiment: Inhibition of bovine adrenal desmolase cytochrome P450 11A1 at 50 ug/mL; details: cattle
T3 sequence (P00189 whole entry): T2 sequence (P00189 whole entry)

Inhibition [1] | Inhibition [2] | inhibition at 20 µg/mL [3] [%] | inhibition at 50 ug/mL [4] [%] | SMILES
Not Active | Not Active |  |  | CCC1(c2cc[n+]([O-])cc2)CCC(=O)NC1=O (configuration not stated)
 | Not Active | 25 |  | CCC1(c2c(F)c(F)nc(F)c2F)CCC(=O)NC1=O (configuration not stated)
 |  | 27 | 38 | CCC1(c2ccncc2)CCC(=O)N(N)C1=O (configuration not stated)
 | Not Active |  |  | CCC1(c2ccncc2)CCC(=O)NC1=O (configuration not stated) [ROGLETIMIDE]
